For 31 compounds, inhibition results are on record in US11541132B2, “Radiolabeled compounds” (Hoffmann-La Roche Inc., priority 2017, dated 2023).

Read-outs that look alike come from different tables or passages of the source.

The target in experiment [1] is T1, native aSyn aggregates in A30P transgenic mouse brain sections (Homo sapiens, UniProt P37840, A30P).
T1 construct: from tissue; host or cells: brain sections (midbrain and pons as ROI) of A30P transgenic mice, line B6.D2-Tg(Thy1-SNCA*30P)31Pjk
The experiment is described as follows: aSyn in vitro displacement assay ([3H]Example-3 autoradiography). The note with it: for inhibition at 1 µM: read-out: PCT_INHIB A30P @ 1 μM (% displacement of [3H]Example-3); for inhibition at 3 µM: 3 μM compound, read-out: PCT_INHIB A30P @ 3 μM. Type of experiment: binding, mutant human aSyn gene). For orientation: Displacement assays read how much labelled ligand stays bound in the presence of the test substance.

For experiment [2], the target named is T2, native Aβ aggregates in human AD brain tissue sections (Homo sapiens, UniProt P05067).
T2 construct: native Aβ aggregates in human AD brain tissue samples; from tissue; host or cells: human AD brain tissue sections
As to the kind of experiment: Aβ in vitro displacement assay (selectivity counterscreen, [3H]Example 3 autoradiography). Type of experiment: binding. The note with it: for inhibition at 1 µM: read-out: sel. counterscreen PCT_INHIB AD @ 1 μM (% displacement of [3H]Example 3); for inhibition at 3 µM: 3 μM compound, read-out: sel. counterscreen PCT_INHIB AD @ 3 μM. For orientation: A counterscreen serves to expose hits that act by an unwanted route or on another target.

The mark [3] stands for this setting: 1 μM compound, 3 nM [3H]Example-3, A30P transgenic mouse brain sections.
The mark [4] stands for this setting: 1 μM compound, 3 nM [3H]Example 3, human AD brain sections.
Setting [5] is: 3 nM [3H]Example-3, A30P transgenic mouse brain sections.
Where [6] appears, read: 3 nM [3H]Example 3, human AD brain sections.

T2 sequence (P05067 672-713 limits assumed): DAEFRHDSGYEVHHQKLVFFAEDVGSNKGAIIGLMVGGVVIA

Take `CN(C)c1ccc(C(=O)Nc2cnc(N3CCN(c4ccccn4)CC3)nc2)cc1` [Example 62, 4-(Dimethylamino)-N-(2-(4-(pyridin-2-yl)piperazin-1-yl)pyrimidin-5-yl)benzamide]: the inhibition at 1 µM is 89% in experiment [1] (setting [3]) and 97% in experiment [2] (setting [4]).

As to `CC(C)(C)[Si](C)(C)OC(CF)COc1ccc(C(=O)Nc2ccc(N3CCN(c4ccc(C#N)cc4)CC3)cc2)cc1` (racemic) [Example 127, rac-4-(2-((tert-Butyldimethylsilyl)oxy)-3-fluoropropoxy)-N-(4-(4-(4-cyanophenyl)piperazin-1-yl)phenyl)benzamide], the inhibition at 1 µM in experiment [1] was 81%; in experiment [2], 78%.

For the compound `COc1ccc(C(=O)Nc2ccc(N3CCN(c4cccc(OC)n4)CC3)cc2)cc1` [Example 68, 4-Methoxy-N-{4-[4-(6-methoxypyridin-2-yl)piperazin-1-yl]phenyl}benzamide], the inhibition at 1 µM was 96% in experiment [1] (setting [3]) and 90% in experiment [2] (setting [4]).

For the compound `C#CCOCCOc1ccc(C(=O)Nc2ccc(N3CCN(c4ccccn4)CC3)cc2)cc1` [Example 178, 4-(2-Prop-2-ynoxyethoxy)-N-[4-[4-(2-pyridyl)piperazin-1-yl]phenyl]benzamide], the inhibition at 3 µM in experiment [1] (setting [5]) stood at 97%; in experiment [2] (setting [6]), 93%.

As for `O=C(Nc1ccc(N2CCN(c3ccccn3)CC2)nc1)c1ccc(N2CCOCC2)cc1` [Example 32, 4-Morpholino-N-[6-[4-(2-pyridyl)piperazin-1-yl]-3-pyridyl]benzamide], the figures for the inhibition at 1 µM in experiment [1] (setting [3]) and in experiment [2] (setting [4]) were 87% and 88%, respectively.

For `COc1ccc(C(=O)Nc2ccc(N3CCN(c4ccncc4)CC3)cc2)cc1` [Example 41, 4-Methoxy-N-[4-[4-(4-pyridyl)piperazin-1-yl]phenyl]benzamide], the inhibition at 1 µM in experiment [1] (setting [3]) was 84%; in experiment [2] (setting [4]) it was 90%.

As for `O=C(Nc1ccc(N2CCN(c3ccccn3)CC2)cc1)c1ccc2c(c1)OCO2` [Example 15, N-(4-(4-(Pyridin-2-yl)piperazin-1-yl)phenyl)benzo[d][1,3]dioxole-5-carboxamide], the values for the inhibition at 1 µM in experiment [1] (setting [3]) and in experiment [2] (setting [4]) were 94% and 98%, respectively.

As for `COc1ccc(C(=O)Nc2ccc(N3CCN(c4ccc(C#N)cn4)CC3)cc2)cc1C` [Example 170, N-(4-(4-(5-Cyanopyridin-2-yl)piperazin-1-yl)phenyl)-4-methoxy-3-methylbenzamide], the inhibition at 1 µM was found to be 86% in experiment [1] (setting [3]) and 82% in experiment [2] (setting [4]).

Consider `COc1ccc(C(=O)Nc2ccc(N3CCN(c4nccs4)CC3)cc2)c(F)c1` [Example 18, 2-Fluoro-4-methoxy-N-[4-[4-(1,3-thiazol-2-yl)piperazin-1-yl]phenyl]benzamide], for which the inhibition at 1 µM in experiment [1] (setting [3]) came out at 95%; in experiment [2] (setting [4]), 99%.

On to `Cc1ccc(C(=O)Nc2cnc(N3CCN(c4ccccn4)CC3)nc2)cc1` [Example 74, 4-Methyl-N-(2-(4-(pyridin-2-yl)piperazin-1-yl)pyrimidin-5-yl)benzamide], for which the inhibition at 1 µM is 93% in experiment [1] (setting [3]) and 95% in experiment [2] (setting [4]).

With `O=C(Nc1ccc(N2CCN(c3nccs3)CC2)cc1)c1ccc(OCCF)cc1` [Example 119, 4-(2-Fluoroethoxy)-N-[4-(4-thiazol-2-ylpiperazin-1-yl)phenyl]benzamide], the inhibition at 1 µM in experiment [1] (setting [3]) stood at 83%; in experiment [2] (setting [4]), 89%.

Take `COc1ccc(C(=O)Nc2ccc(N3CCN(c4ccccn4)CC3)cc2C)c(F)c1` [Example 29, 2-Fluoro-4-methoxy-N-(2-methyl-4-(4-(pyridin-2-yl)piperazin-1-yl)phenyl)benzamide]: the inhibition at 1 µM worked out at 81% in experiment [1] (setting [3]) and 83% in experiment [2] (setting [4]).

Turning to `COc1ccc(C(=O)Nc2cnc(N3CCN(c4ccccn4)CC3)nc2)c(F)c1` [Example 60, 2-Fluoro-4-methoxy-N-(2-(4-(pyridin-2-yl)piperazin-1-yl)pyrimidin-5-yl)benzamide], the inhibition at 1 µM in experiment [1] (setting [3]) was determined as 85%; in experiment [2] (setting [4]), 96%.

Regarding `COc1ccc(C(=O)Nc2ccc(N3CCN(c4ccccc4OC)CC3)cc2)cc1` [Example 69, 4-Methoxy-N-{4-[4-(2-methoxyphenyl)piperazin-1-yl]phenyl}benzamide], the inhibition at 1 µM in experiment [1] (setting [3]) was found to be 89%; in experiment [2] (setting [4]) it was 86%.

`O=C(Nc1ccc(N2CCN(c3nccs3)CC2)cc1)c1ccc(OCCOCCOCCF)cc1` [Example 120, 4-[2-[2-(2-Fluoroethoxy)ethoxy]ethoxy]-N-[4-(4-thiazol-2-ylpiperazin-1-yl)phenyl]benzamide]: the inhibition at 1 µM in experiment [1] (setting [3]) stood at 81%; in experiment [2] (setting [4]) it was 93%.

Turning to `COc1ccc(C(=O)Nc2ccc(N3CCN(c4ccc(C#N)cc4)CC3)cc2)cc1C` [Example 167, N-(4-(4-(4-Cyanophenyl)piperazin-1-yl)phenyl)-4-methoxy-3-methylbenzamide], the inhibition at 1 µM was found to be 91% in experiment [1] (setting [3]) and 88% in experiment [2] (setting [4]).

Consider `COc1ccc(C(=O)Nc2ccc(N3CCN(c4ccccn4)CC3)c(F)c2)cc1` [Example 106, N-[3-Fluoro-4-[4-(2-pyridyl)piperazin-1-yl]phenyl]-4-methoxy-benzamide], for which the inhibition at 1 µM in experiment [1] (setting [3]) is 82%; in experiment [2] (setting [4]) it was 88%.

`COc1ccc(C(=O)Nc2ccc(N3CCN(c4ccc(OC)nc4)CC3)cc2)cc1` [Example 58, 4-Methoxy-N-[4-[4-(6-methoxypyridin-3-yl)piperazin-1-yl]phenyl]benzamide]: the inhibition at 1 µM was 93% in experiment [1] (setting [3]) and 92% in experiment [2] (setting [4]).

Regarding `COc1ccc(C(=O)Nc2ccc(N3CCN(c4ccc(C#N)cc4)CC3)cc2)c(F)c1` [Example 114, N-[4-[4-(4-Cyanophenyl)piperazin-1-yl]phenyl]-2-fluoro-4-methoxy-benzamide], the inhibition at 1 µM was 91% in experiment [1] (setting [3]) and 92% in experiment [2] (setting [4]).

For the compound `N#Cc1ccc(N2CCN(c3ccc(NC(=O)c4ccc(OCCF)cc4)cc3)CC2)nc1` [Example 116, N-[4-[4-(5-Cyano-2-pyridyl)piperazin-1-yl]phenyl]-4-(2-fluoroethoxy)benzamide], the inhibition at 1 µM in experiment [1] (setting [3]) turned out to be 81%; in experiment [2] (setting [4]), 85%.

Consider `O=C(Nc1ccc(N2CCN(c3ccccn3)CC2)cc1)c1ccc(OCCF)cc1` [Example 118, 4-(2-Fluoroethoxy)-N-[4-[4-(2-pyridyl)piperazin-1-yl]phenyl]benzamide], for which the inhibition at 1 µM in experiment [1] (setting [3]) came to 88%; in experiment [2] (setting [4]) it was 92%.

For the compound `COc1ccc(C(=O)Nc2ccc(N3CCN(c4ccccn4)CC3)cn2)c(F)c1` [Example 44, 2-Fluoro-4-methoxy-N-(5-(4-(pyridin-2-yl)piperazin-1-yl)pyridin-2-yl)benzamide], the values for the inhibition at 1 µM in experiment [1] (setting [3]) and in experiment [2] (setting [4]) were 95% and 94%, respectively.

Turning to `C#CCOCCOc1ccc(C(=O)Nc2ccc(N3CCN(c4ccc(C#N)cn4)CC3)cc2)cc1` [Example 175, N-[4-[4-(5-Cyano-2-pyridyl)piperazin-1-yl]phenyl]-4-(2-prop-2-ynoxyethoxy)benzamide], the inhibition at 3 µM in experiment [1] (setting [5]) came out at 85%; in experiment [2] (setting [6]), 98%.

Take `COc1ccc(C(=O)Nc2ccc(N3CCN(c4cc(Cl)ccn4)CC3)cc2)cc1` [Example 149, N-(4-(4-(4-Chloropyridin-2-yl)piperazin-1-yl)phenyl)-4-methoxybenzamide]: the inhibition at 1 µM in experiment [1] (setting [3]) was 93%; in experiment [2] (setting [4]), 91%.

Consider `Cc1ccc(C(=O)Nc2ccc(N3CCN(c4nccs4)CC3)cc2)c(F)c1` [Example 21, 2-Fluoro-4-methyl-N-[4-[4-(1,3-thiazol-2-yl)piperazin-1-yl]phenyl]benzamide], for which the values for the inhibition at 1 µM in experiment [1] (setting [3]) and in experiment [2] (setting [4]) were 85% and 91%, respectively.

As for `COc1ccc(C(=O)Nc2ccc(N3CCN(c4ccc(C#N)cn4)CC3)cc2)nc1` [Example 162, N-(4-(4-(5-Cyanopyridin-2-yl)piperazin-1-yl)phenyl)-5-methoxypicolinamide], the inhibition at 1 µM in experiment [1] (setting [3]) amounted to 84%; in experiment [2] (setting [4]), 78%.

In the case of `CN1CCN(c2ccc(C(=O)Nc3cnc(N4CCN(c5ccccn5)CC4)nc3)cc2)CC1` [Example 73, 4-(4-Methylpiperazin-1-yl)-N-(2-(4-(pyridin-2-yl)piperazin-1-yl)pyrimidin-5-yl)benzamide], the inhibition at 1 µM in experiment [1] (setting [3]) was found to be 88%; in experiment [2] (setting [4]) it was 91%.

On to `O=C(Nc1ccc(N2CCN(c3ccccn3)CC2)cc1)c1ccc(OCCOCCF)cc1` [Example 12, 4-(2-(2-fluoroethoxy)ethoxy)-N-(4-(4-(pyridin-2-yl)piperazin-1-yl)phenyl) benzamide], for which the inhibition at 1 µM in experiment [1] (setting [3]) and in experiment [2] (setting [4]) was 99% in each case.

In the case of `N#Cc1ccc(N2CCN(c3ccc(NC(=O)c4ccc(OCCOCCF)cc4)cc3)CC2)cc1` [Example 122, N-(4-(4-(4-cyanophenyl)piperazin-1-yl)phenyl)-4-(2-(2-fluoroethoxy)ethoxy) benzamide], the inhibition at 1 µM in experiment [1] (setting [3]) stood at 88%; in experiment [2] (setting [4]), 85%.

With `CN(C)c1ccc(C(=O)Nc2ccc(N3CCN(c4ccccn4)CC3)nn2)cc1` [Example 36, 4-(Dimethylamino)-N-[6-[4-(2-pyridyl)piperazin-1-yl]pyridazin-3-yl]benzamide], the inhibition at 1 µM came to 86% in experiment [1] (setting [3]) and 91% in experiment [2] (setting [4]).

In the case of `COc1ccc(C(=O)Nc2ccc(N3CCN(c4ncccn4)CC3)cc2)cc1` [Example 49, 4-Methoxy-N-{4-[4-(pyrimidin-2-yl)piperazin-1-yl]phenyl}benzamide], the inhibition at 1 µM in experiment [1] (setting [3]) was 92%; in experiment [2] (setting [4]), 95%.
